Assay [1] relates to Jurkat (clone E6-1) cells with NFAT luciferase reporter. The assay is described as follows: Jurkat reporter assay (NFAT Luciferase). The assay is classed as cell-based. The following applies: Jurkat NFAT luciferase reporter cells, anti-CD3 stimulation, 6 hr, read-out: Jurkat NFAT EC50. (In a reporter assay the amount or activity of a reporter protein is the signal.)
For assay [2], the target named is Recombinant human Cbl-b (aa 36-427) (Homo sapiens, UniProt Q13191). The assay is described as follows: Cbl-b Biochemical Assay (TR-FRET). The following applies: read-out: TR-FRET hCbl-b IC50. In general terms: Time-resolved FRET reads energy transfer from a long-lived donor to a nearby acceptor.
The target of assay [3] is T1, Recombinant human c-Cbl (aa 47-435) (Homo sapiens, UniProt P22681).
T1 sequence (P22681 47-435): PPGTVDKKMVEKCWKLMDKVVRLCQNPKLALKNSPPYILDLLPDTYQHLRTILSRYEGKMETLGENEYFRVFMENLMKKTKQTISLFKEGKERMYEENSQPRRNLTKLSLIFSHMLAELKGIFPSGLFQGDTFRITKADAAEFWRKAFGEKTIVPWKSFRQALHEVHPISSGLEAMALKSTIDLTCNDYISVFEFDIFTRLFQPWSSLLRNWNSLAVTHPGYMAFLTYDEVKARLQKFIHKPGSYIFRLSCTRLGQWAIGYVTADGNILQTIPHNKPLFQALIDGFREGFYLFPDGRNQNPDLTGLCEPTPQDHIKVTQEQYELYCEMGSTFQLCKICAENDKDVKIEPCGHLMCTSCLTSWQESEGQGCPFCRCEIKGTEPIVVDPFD
The assay is described as follows: c-Cbl Biochemical Assay (TR-FRET). Particulars: hc-Cbl Biochemical Assay (TR-FRET); read-out: TR-FRET hcCbl IC50.

Where two headings read alike, the source gives them in different places.

Recombinant human Cbl-b (aa 36-427), sequence (Q13191 36-427): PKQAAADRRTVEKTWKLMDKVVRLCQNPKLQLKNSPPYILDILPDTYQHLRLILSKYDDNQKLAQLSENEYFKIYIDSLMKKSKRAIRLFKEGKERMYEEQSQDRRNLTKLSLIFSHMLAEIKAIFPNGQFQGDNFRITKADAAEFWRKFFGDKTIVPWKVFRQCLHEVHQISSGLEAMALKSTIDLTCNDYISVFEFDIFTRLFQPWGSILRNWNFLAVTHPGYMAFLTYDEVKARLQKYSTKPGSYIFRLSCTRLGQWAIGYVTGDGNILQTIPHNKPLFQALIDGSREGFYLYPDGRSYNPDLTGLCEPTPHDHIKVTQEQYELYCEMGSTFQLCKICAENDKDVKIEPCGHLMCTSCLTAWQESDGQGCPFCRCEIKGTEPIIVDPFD

As usually defined, the EC50 is the concentration at which the effect is half-maximal. The IC50 is the point on the concentration scale where inhibition reaches its midpoint. Turning to `Cn1cnnc1-c1cc(F)ccc1-c1cccc(-c2nc3cc(CN[C@H]4CC[C@@H]4O)cc(C(F)(F)F)c3o2)c1` (racemic) [ADF-2, (1R,2R)-2-[({2-[4′-Fluoro-2′-(4-methyl-1,2,4-triazol-3-yl)-[1,1′-biphenyl]-3-yl]-7-(trifluoromethyl)-1,3-benzoxazol-5-yl}methyl)amino]cyclobutan-1-ol], the EC50 in assay [1] (Homo sapiens) was under 200 nM. In addition, the IC50 in assay [2] and in assay [3] was under 200 nM in each case.

`C[C@H]1CCC[C@@H](NCc2cc(C(F)(F)F)c3oc(-c4cccc(-c5ccc(F)cc5-c5nncn5C)c4)nc3c2)C1` (racemic) [FV-2, rac-(1R,3S)—N-((2-(4′-fluoro-2′-(4-methyl-4H-1,2,4-triazol-3-yl)-[1,1′-biphenyl]-3-yl)-7-(trifluoromethyl)benzo[d]oxazol-5-yl)methyl)-3-methylcyclohexan-1-amine]: the EC50 in assay [1] (Homo sapiens) was under 200 nM. Further, the IC50 in assay [2] and in assay [3] was under 200 nM throughout.

For the molecule `C[C@@H]1CCC[C@@H](NCc2cc(C(F)(F)F)c3oc(-c4cccc(-c5ccc(F)cc5-c5nncn5C)c4)nc3c2)C1` (racemic) [FV-3, rac-(1R,3R)—N-((2-(4′-fluoro-2′-(4-methyl-4H-1,2,4-triazol-3-yl)-[1,1′-biphenyl]-3-yl)-7-(trifluoromethyl)benzo[d]oxazol-5-yl)methyl)-3-methylcyclohexan-1-amine], the EC50 in assay [1] (Homo sapiens) fell in the range of 200 to 1000 nM. The 50% inhibitory concentration (IC50) in assay [2] and in assay [3] was under 200 nM in each case.

In the case of `Cn1cnnc1-c1cc(F)ccc1-c1cccc(-c2nc3cc(C(NCC4CCC4)C(F)(F)F)cc(F)c3o2)c1` (racemic) [IL-6, rac-N-(Cyclobutylmethyl)-2,2,2-trifluoro-1-(7-fluoro-2-(4′-fluoro-2′-(4-methyl-4H-1,2,4-triazol-3-yl)-[1,1′-biphenyl]-3-yl)benzo[d]oxazol-5-yl)ethan-1-amine], the EC50 in assay [1] (Homo sapiens) is 200 to 1000 nM. Also, the IC50 in assay [2] and in assay [3] was 1000 to 10000 nM in each case.

For the molecule `Cn1cnnc1-c1cc(F)ccc1-c1cccc(-c2nc3cc(CN[C@]4(C)CCC[C@@H]4O)cc(C(F)(F)F)c3o2)c1` (racemic) [IM-8, rac-(1S,2R)-2-(((2-(4′-fluoro-2′-(4-methyl-4H-1,2,4-triazol-3-yl)-[1,1′-biphenyl]-3-yl)-7-(trifluoromethyl)benzo[d]oxazol-5-yl)methyl)amino)-2-methylcyclopentan-1-ol], the EC50 in assay [1] (Homo sapiens) is under 200 nM. For the same molecule, the IC50 in assay [2] and in assay [3] was under 200 nM in each case.

For the molecule `Cn1cnnc1-c1cc(F)ccc1-c1cccc(-c2nc3cc(C(NCC4CCC4)C(F)(F)F)cc(C4CC4)c3o2)c1` (racemic) [IO-4, rac-N-(Cyclobutylmethyl)-1-(7-cyclopropyl-2-(4′-fluoro-2′-(4-methyl-4H-1,2,4-triazol-3-yl)-[1,1′-biphenyl]-3-yl)benzo[d]oxazol-5-yl)-2,2,2-trifluoroethan-1-amine], the EC50 in assay [1] (Homo sapiens) lay within 1000 to 10000 nM. The IC50 in assay [2] and in assay [3] was 1000 to 10000 nM each time.

As to `Cn1cnnc1-c1cc(F)ccc1-c1cccc(-c2nc3cc(CN[C@H]4CC[C@@H]4O)cc(C(F)(F)F)c3o2)c1` (single isomer, unassigned) [ADG-1], the EC50 in assay [1] (Homo sapiens) is under 200 nM. Besides, the IC50 in assay [2] and in assay [3] was under 200 nM each time.

`Cn1cnnc1-c1cc(F)ccc1-c1cccc(-c2nc3cc(CN[C@H]4CC[C@@H]4O)cc(C(F)(F)F)c3o2)c1` (single isomer, unassigned) [ADH-1]: in assay [1], the EC50 was under 200 nM. Moreover, the IC50 in assay [2] and in assay [3] was under 200 nM throughout.

`Cn1cnnc1-c1cc(F)ccc1-c1cccc(-c2nc3cc([C@H](CO)N4CCC4)cc(C(F)(F)F)c3o2)c1` (single isomer, unassigned) [DO-6]: the EC50 in assay [1] (Homo sapiens) lay in the range of 1000 to 10000 nM. Besides, the figures for the IC50 in assay [2] and in assay [3] were under 200 nM and 200 to 1000 nM, respectively.

As for `Cn1cnnc1-c1cc(F)ccc1-c1cccc(-c2nc3cc([C@@H](CO)N4CCC4)cc(C(F)(F)F)c3o2)c1` (single isomer, unassigned) [DO-7], in assay [1] (Homo sapiens), the concentration for a half-maximal effect (EC50) was in the range of 1000 to 10000 nM. Besides, the IC50 was under 200 nM in assay [2] and 200 to 1000 nM in assay [3].

As to `Cn1cnnc1-c1cc(F)ccc1-c1cccc(-c2nc3cc(CNC[C@H](O)C4CC4)cc(C(F)(F)F)c3o2)c1` (single isomer, unassigned) [DT-2], the concentration giving a half-maximal response (EC50) in assay [1] (Homo sapiens) was under 200 nM. The IC50 in assay [2] and in assay [3] was under 200 nM throughout.

`Cn1cnnc1-c1cc(F)ccc1-c1cccc(-c2nc3cc(CNC[C@@H](O)C4CC4)cc(C(F)(F)F)c3o2)c1` (single isomer, unassigned) [DT-3]: the EC50 in assay [1] (Homo sapiens) is under 200 nM. In addition, the IC50 in assay [2] and in assay [3] was under 200 nM throughout.

Regarding `CO[C@H](CO)c1cc(C(F)(F)F)c2oc(-c3cccc(-c4ccc(F)cc4-c4nncn4C)c3)nc2c1` (single isomer, unassigned) [EG-2], in assay [1] (Homo sapiens), the EC50 lay in the range of 1000 to 10000 nM. Also, the IC50 in assay [2] is under 200 nM; in assay [3], 200 to 1000 nM.

In the case of `CO[C@@H](CO)c1cc(C(F)(F)F)c2oc(-c3cccc(-c4ccc(F)cc4-c4nncn4C)c3)nc2c1` (single isomer, unassigned) [EG-3], the EC50 in assay [1] (Homo sapiens) fell in the range of 1000 to 10000 nM. For the same molecule, the IC50 in assay [2] is under 200 nM; in assay [3], 200 to 1000 nM.

In the case of `CC(NCC1(O)CCC1)c1cc(F)c2oc(-c3cc(-c4ccc(F)cc4-c4nncn4C)cc(C4CC4)n3)nc2c1` (stereo in doubt) [AFQ-6, 1-({[(1S)-1-(2-{6-Cyclopropyl-4-[4-fluoro-2-(4-methyl-1,2,4-triazol-3-yl)phenyl]pyridin-2-yl}-7-fluoro-1,3-benzoxazol-5-yl)ethyl]amino}methyl)cyclobutan-1-ol], the EC50 in assay [1] (Homo sapiens) was under 200 nM. The IC50 in assay [2] and in assay [3] was under 200 nM in each case.

With `CC(NCC1(O)CCC1)c1cc(F)c2oc(-c3cc(-c4ccc(F)cc4-c4nncn4C)cc(C4CC4)n3)nc2c1` (stereo in doubt) [AFR-1, 1-({[(1R)-1-(2-{6-Cyclopropyl-4-[4-fluoro-2-(4-methyl-1,2,4-triazol-3-yl)phenyl]pyridin-2-yl}-7-fluoro-1,3-benzoxazol-5-yl)ethyl]amino}methyl)cyclobutan-1-ol], the EC50 in assay [1] (Homo sapiens) is under 200 nM. The half-maximal inhibitory concentration (IC50) in assay [2] and in assay [3] was under 200 nM each time.

For `CO[C@H]1CCCC1NCc1cc(C(F)(F)F)c2oc(-c3cccc(-c4ccc(F)cc4-c4nncn4C)c3)nc2c1` (stereo in doubt) [CV-2, (1S,2S)—N-((2-(4′-Fluoro-2′-(4-methyl-4H-1,2,4-triazol-3-yl)-[1,1′-biphenyl]-3-yl)-7-(trifluoromethyl)benzo[d]oxazol-5-yl)methyl)-2-methoxycyclopentan-1-amine], the EC50 in assay [1] (Homo sapiens) is 200 to 1000 nM. In addition, the IC50 in assay [2] and in assay [3] was under 200 nM throughout.

`COCCNCc1cc(C(F)(F)F)c2oc(-c3cccc(-c4ccc(F)cc4-c4nncn4C)c3)nc2c1` [AA-2, N-((2-(4′-Fluoro-2′-(4-methyl-4H-1,2,4-triazol-3-yl)-[1,1′-biphenyl]-3-yl)-7-(trifluoromethyl)benzo[d]oxazol-5-yl)methyl)-2-methoxyethan-1-amine]: the 50% effective concentration (EC50) in assay [1] (Homo sapiens) lay in the range of 200 to 1000 nM. The IC50 in assay [2] was under 200 nM; in assay [3] it was 1000 to 10000 nM.

Take `COC(=O)c1cc(C)c2oc(-c3cc(-c4ccc(F)cc4-c4nncn4C)cc(C4CC4)n3)nc2c1` [AES-3, Methyl 2-{6-cyclopropyl-4-[4-fluoro-2-(4-methyl-1,2,4-triazol-3-yl)phenyl]pyridin-2-yl}-7-methyl-1,3-benzoxazole-5-carboxylate]: in assay [1] (Homo sapiens), the EC50 was 10000 to 50000 nM. Moreover, in assay [2], the IC50 fell in the range of 1000 to 10000 nM.

With `Cn1cnnc1-c1cc(F)ccc1-c1cccc(-c2nc3cc(C(=O)O)cc(C(F)(F)F)c3o2)c1` [DB-1, 2-(4′-Fluoro-2′-(4-methyl-4H-1,2,4-triazol-3-yl)-[1,1′-biphenyl]-3-yl)-7-(trifluoromethyl)benzo[d]oxazole-5-carboxylic Acid], the concentration for a half-maximal effect (EC50) in assay [1] (Homo sapiens) was 1000 to 10000 nM. Further, the IC50 in assay [2] lay in the range of 10000 to 50000 nM.

As to `Cn1cnnc1-c1cc(F)ccc1-c1cccc(-c2nc3cccc(C(F)(F)F)c3o2)c1` [Example S-1, 2-(4′-Fluoro-2′-(4-methyl-4H-1,2,4-triazol-3-yl)-[1,1′-biphenyl]-3-yl)-7-(trifluoromethyl)benzo[d]oxazole], the IC50 in assay [2] was in the range of 200 to 1000 nM; in assay [3] it was 1000 to 10000 nM.

As for `COC(=O)c1cc(C(F)(F)F)c2oc(-c3cccc(-c4ccc(F)cc4-c4nncn4C)c3)nc2c1` [Example X-1, Methyl 2-(4′-fluoro-2′-(4-methyl-4H-1,2,4-triazol-3-yl)-[1,1′-biphenyl]-3-yl)-7-(trifluoromethyl)benzo[d]oxazole-5-carboxylate], the IC50 fell in the range of 200 to 1000 nM in assay [2] and 1000 to 10000 nM in assay [3].

Regarding `Cn1cnnc1-c1cc(F)ccc1-c1cccc(-c2nc3cc(NCCC4CCC4)cc(C(F)(F)F)c3o2)c1` [HU-1, N-(2-Cyclobutylethyl)-2-(4′-fluoro-2′-(4-methyl-4H-1,2,4-triazol-3-yl)-[1,1′-biphenyl]-3-yl)-7-(trifluoromethyl)benzo[d]oxazol-5-amine], in assay [1] (Homo sapiens), the EC50 was in the range of 10000 to 50000 nM. In addition, in assay [2], the IC50 was in the range of 1000 to 10000 nM.

The values above are taken from patent publication US20250163038A1, “CBL-B MODULATORS AND USES THEREOF” (Nimbus Clio, Inc., priority 2021, published 2025).
